Measurements published in paper PMC3235152, “Heteromeric Anopheline Odorant Receptors Exhibit Distinct Channel Properties” (PLoS ONE, 2011).

Experiments:
[1] = molecular target: T1, AgOrco + AgOr10 (Anopheles gambiae, UniProt B5U0U7+Q7QCC7); experiment: whole-cell patch clamp, block of agonist-induced current; format: cell-based; settings: 100 µM benzaldehyde as agonist; -60 mV; pH 7.35; 20–22°C; pore blocker, noncompetitive with VUAA1
T1 construct: gene Orco; heteromer of unknown stoichiometry; VUAA1 acts on Orco, odorant on Or10, ruthenium red at the pore
T1 sequence (Q7QCC7 1-478): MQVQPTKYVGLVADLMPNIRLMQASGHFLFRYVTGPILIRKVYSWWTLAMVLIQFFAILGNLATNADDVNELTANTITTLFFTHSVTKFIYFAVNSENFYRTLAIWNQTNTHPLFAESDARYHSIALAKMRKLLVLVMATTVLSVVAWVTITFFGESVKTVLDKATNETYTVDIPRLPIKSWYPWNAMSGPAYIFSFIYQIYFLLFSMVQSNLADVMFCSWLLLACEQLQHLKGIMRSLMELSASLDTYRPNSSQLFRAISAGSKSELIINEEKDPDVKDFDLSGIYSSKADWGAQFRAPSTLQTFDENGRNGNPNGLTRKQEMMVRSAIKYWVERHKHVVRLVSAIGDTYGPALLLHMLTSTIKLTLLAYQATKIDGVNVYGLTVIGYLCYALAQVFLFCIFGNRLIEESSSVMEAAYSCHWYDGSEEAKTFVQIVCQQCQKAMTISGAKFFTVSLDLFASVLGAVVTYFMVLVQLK
T1 sequence (B5U0U7 1-375): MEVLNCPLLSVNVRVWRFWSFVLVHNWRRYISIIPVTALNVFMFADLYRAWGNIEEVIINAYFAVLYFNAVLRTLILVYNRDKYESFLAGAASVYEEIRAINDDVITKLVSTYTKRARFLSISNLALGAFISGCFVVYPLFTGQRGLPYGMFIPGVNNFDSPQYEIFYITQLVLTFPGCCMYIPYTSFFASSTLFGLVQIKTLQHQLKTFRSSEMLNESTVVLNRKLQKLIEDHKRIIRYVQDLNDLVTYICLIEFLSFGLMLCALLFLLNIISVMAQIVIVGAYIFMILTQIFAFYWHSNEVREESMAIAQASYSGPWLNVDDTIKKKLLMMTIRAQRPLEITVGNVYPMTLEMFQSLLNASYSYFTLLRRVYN

[2] = test system: T2, AgOrco + AgOr28; experiment: Ca++ imaging concentration-response in HEK cells; format: cell-based, Anopheles gambiae; settings: Orco agonist; AgOrco homomers may coexist
T2 construct: gene Orco; heteromer of unknown stoichiometry; VUAA1 acts on Orco, odorant on Or28, ruthenium red at the pore

[3] = molecular target: T1, AgOrco + AgOr10; experiment: Ca++ imaging concentration-response in HEK cells; format: cell-based
[4] = test system: T3, AgOrco + AgOr65; experiment: Ca++ imaging concentration-response in HEK cells; format: cell-based, Anopheles gambiae; settings: Orco agonist; AgOrco homomers may coexist
T3 construct: gene Orco; heteromer of unknown stoichiometry; VUAA1 acts on Orco, odorant on Or65, ruthenium red at the pore

[5] = molecular target: T4, AgOrco (Anopheles gambiae, UniProt Q7QCC7); experiment: Ca++ imaging concentration-response in HEK cells; format: cell-based
T4 construct: gene Orco; Orco homomer, stoichiometry unknown
T4 sequence (Q7QCC7 1-478): T1 sequence (Q7QCC7 1-478)

[6] = molecular target: T5, AgOrco + AgOr8 (Anopheles gambiae, UniProt Q7PUT5+Q7QCC7); experiment: Ca++ imaging concentration-response in HEK cells; format: cell-based
T5 construct: gene Orco; heteromer of unknown stoichiometry; VUAA1 acts on Orco, odorant on Or8, ruthenium red at the pore
T5 sequence (Q7QCC7 1-478): T1 sequence (Q7QCC7 1-478)
T5 sequence (Q7PUT5 1-399): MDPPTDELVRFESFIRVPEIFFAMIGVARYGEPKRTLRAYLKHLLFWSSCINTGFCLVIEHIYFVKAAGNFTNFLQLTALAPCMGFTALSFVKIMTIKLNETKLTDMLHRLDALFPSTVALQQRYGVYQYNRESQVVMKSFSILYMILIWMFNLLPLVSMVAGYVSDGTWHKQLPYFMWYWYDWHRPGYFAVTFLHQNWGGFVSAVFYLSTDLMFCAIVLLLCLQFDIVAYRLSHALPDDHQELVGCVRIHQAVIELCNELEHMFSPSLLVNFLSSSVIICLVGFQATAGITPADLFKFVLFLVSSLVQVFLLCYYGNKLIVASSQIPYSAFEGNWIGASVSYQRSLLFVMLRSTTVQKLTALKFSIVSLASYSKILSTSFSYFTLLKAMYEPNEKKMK

| Compound | % current reduction at 100 μM [1] | EC50 [2] | EC50 [3] | EC50 [4] | EC50 [5] | EC50 [6] |
| --- | --- | --- | --- | --- | --- | --- |
| N.N.N.N.N.N.N.N.N.N.N.N.N.N.[Cl-].[Cl-].[Cl-].[Cl-].[Cl-].[Cl-].[O-2].[O-2].[Ru+3].[Ru+3].[Ru+4] [ruthenium red] | 78.5±1.4% | – | – | – | – | – |
| CCc1ccc(NC(=O)CSc2nnc(-c3cccnc3)n2CC)cc1 [VUAA1, N-(4-ethylphenyl)-2-((4-ethyl-5-(3-pyridinyl)-4H-1,2,4-triazol-3-yl)thio)acetamide] | – | −4.47±0.02 logM | 12.3 µM | −4.42±0.02 logM | 49 µM | 13.2 µM |
